For test [1], the target named is Tyrosine-protein kinase ABL1 (Homo sapiens, UniProt P00519). Nature of the test: Inhibition of ABL.
Test [2] deals with Vascular endothelial growth factor receptor 2 (Homo sapiens, UniProt P35968). Nature of the test: Inhibition of KDR.
In test [3] the target is T1, Epidermal growth factor receptor (Homo sapiens, UniProt P00533). Nature of the test: Inhibition of human recombinant EGFR by fluorescence polarization assay.
In test [4] the target is Vascular endothelial growth factor receptor 1 (Homo sapiens, UniProt P17948). Put plainly: Inhibition of Flt1.
Sequence of Vascular endothelial growth factor receptor 1 (P17948 whole entry): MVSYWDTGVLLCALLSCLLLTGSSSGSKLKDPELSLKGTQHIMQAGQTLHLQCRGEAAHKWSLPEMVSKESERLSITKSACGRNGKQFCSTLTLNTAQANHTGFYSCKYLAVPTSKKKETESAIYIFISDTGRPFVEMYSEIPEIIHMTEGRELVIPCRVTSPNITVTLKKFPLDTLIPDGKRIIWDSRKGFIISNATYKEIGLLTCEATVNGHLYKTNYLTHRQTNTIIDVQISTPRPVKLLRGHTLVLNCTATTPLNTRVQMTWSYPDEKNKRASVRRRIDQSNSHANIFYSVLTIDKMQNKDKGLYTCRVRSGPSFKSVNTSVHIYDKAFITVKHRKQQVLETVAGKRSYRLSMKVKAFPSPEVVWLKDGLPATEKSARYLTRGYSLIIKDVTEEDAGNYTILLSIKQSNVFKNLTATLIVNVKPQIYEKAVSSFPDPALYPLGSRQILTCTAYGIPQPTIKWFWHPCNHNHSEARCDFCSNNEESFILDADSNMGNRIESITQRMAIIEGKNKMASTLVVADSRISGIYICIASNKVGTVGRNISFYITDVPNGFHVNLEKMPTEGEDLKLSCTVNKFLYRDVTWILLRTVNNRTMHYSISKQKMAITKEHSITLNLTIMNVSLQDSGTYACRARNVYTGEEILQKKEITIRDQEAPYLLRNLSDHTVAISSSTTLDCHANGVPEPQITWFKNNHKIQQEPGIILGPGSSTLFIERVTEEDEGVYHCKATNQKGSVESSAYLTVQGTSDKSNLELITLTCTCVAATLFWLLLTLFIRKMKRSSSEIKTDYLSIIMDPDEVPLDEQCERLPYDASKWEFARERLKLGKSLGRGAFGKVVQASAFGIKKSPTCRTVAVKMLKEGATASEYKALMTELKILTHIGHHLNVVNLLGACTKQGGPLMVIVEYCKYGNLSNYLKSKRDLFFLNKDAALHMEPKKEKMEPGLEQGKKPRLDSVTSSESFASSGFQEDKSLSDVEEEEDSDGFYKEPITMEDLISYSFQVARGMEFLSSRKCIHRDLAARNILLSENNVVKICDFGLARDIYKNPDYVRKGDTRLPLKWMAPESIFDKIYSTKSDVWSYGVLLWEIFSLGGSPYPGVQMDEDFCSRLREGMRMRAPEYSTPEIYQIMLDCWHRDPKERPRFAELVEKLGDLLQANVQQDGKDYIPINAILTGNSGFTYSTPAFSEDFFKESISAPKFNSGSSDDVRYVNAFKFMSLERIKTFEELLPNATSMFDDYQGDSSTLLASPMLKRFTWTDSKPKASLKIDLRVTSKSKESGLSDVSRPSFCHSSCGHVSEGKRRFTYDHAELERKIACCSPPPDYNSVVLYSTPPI
Test [5] has as its target Proto-oncogene tyrosine-protein kinase Src (Homo sapiens, UniProt P12931). Put plainly: Inhibition of SRC.
Test [6] addresses T1, Epidermal growth factor receptor. Nature of the test: Inhibition of human EGFR autophosphorylation in A431 cells.
The target of test [7] is Tyrosine-protein kinase SYK (Homo sapiens, UniProt P43405). Put plainly: Inhibition of SYK.

T1 sequence (P00533 whole entry): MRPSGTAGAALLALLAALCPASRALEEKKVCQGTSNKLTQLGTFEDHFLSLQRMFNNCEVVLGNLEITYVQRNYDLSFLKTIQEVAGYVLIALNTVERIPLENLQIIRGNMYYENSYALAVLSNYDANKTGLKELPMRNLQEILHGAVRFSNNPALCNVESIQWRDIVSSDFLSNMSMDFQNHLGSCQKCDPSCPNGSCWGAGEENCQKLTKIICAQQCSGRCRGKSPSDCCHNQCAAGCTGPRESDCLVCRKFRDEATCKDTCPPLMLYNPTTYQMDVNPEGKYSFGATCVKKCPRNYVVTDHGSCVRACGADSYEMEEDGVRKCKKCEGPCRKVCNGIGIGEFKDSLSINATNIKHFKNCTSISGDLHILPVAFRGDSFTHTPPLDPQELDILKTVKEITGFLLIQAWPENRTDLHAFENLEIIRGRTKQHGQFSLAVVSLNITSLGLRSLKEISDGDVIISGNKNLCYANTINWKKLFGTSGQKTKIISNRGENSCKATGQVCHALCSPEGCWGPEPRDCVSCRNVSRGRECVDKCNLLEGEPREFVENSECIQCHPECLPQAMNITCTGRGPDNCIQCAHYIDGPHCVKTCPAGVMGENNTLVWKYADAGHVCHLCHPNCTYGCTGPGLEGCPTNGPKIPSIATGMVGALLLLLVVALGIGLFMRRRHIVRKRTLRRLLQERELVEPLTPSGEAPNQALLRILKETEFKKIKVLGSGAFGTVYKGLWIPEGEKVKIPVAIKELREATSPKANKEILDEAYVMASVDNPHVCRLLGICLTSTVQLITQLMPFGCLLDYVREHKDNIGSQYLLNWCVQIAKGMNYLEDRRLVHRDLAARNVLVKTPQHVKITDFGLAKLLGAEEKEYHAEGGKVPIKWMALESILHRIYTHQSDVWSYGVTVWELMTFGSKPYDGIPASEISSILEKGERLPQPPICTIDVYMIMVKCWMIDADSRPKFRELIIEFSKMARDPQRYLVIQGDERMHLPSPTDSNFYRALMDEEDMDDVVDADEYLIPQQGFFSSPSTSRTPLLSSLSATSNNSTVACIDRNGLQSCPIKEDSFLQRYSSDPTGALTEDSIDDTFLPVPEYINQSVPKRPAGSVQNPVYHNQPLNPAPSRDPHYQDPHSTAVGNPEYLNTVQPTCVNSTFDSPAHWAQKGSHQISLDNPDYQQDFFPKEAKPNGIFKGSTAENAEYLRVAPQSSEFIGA
Sequence of Tyrosine-protein kinase ABL1 (P00519 whole entry): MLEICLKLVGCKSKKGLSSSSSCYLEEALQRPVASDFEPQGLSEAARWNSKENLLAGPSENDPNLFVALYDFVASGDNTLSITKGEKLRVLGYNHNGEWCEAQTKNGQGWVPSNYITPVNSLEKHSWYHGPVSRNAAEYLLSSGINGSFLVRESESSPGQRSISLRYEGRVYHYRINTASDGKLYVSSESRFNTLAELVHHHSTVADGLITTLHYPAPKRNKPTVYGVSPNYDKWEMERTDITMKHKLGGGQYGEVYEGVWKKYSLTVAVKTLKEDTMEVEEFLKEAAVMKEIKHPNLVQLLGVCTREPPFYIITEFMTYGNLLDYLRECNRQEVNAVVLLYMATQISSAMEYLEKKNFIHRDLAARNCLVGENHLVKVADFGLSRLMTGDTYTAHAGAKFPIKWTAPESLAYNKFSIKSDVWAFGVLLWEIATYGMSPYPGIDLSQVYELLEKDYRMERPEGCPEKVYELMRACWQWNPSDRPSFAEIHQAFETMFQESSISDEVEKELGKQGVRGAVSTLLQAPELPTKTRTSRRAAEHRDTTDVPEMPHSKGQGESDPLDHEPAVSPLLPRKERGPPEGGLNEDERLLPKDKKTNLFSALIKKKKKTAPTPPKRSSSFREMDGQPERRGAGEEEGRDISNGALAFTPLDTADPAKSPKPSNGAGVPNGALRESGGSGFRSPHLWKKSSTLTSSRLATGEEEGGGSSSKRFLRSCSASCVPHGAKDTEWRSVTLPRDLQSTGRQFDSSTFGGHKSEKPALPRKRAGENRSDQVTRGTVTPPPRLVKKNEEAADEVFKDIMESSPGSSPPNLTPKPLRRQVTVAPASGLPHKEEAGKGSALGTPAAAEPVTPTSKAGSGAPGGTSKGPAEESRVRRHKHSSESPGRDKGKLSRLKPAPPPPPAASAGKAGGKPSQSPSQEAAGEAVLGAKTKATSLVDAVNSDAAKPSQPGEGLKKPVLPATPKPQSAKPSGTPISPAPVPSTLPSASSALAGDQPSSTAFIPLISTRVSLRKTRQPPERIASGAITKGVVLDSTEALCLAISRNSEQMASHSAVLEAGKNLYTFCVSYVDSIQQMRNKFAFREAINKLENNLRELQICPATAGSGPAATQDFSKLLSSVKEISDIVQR
Sequence of Proto-oncogene tyrosine-protein kinase Src (P12931 2-536 limits assumed): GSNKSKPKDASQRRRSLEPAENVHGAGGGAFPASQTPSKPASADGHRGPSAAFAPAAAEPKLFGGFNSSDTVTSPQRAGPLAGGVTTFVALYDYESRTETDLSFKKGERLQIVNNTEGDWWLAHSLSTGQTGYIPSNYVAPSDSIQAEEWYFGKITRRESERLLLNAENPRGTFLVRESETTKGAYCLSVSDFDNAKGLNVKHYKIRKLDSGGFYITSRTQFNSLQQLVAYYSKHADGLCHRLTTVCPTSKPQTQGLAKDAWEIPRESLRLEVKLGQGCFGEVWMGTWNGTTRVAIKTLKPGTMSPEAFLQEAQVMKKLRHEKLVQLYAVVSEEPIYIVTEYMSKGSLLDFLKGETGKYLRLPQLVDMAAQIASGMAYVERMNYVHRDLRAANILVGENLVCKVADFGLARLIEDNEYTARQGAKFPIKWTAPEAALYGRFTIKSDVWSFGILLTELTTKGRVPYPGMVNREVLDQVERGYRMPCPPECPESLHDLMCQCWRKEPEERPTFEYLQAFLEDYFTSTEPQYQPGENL

For the compound `COc1cc2ncc(C#N)c(N[C@@H]3C[C@H]3c3ccccc3)c2cc1OCCN1CCOCC1`, the Ki is above 10000 nM in test [1]; 150 nM in test [2]; 64 nM in test [3]; above 10000 nM in test [4]; above 10000 nM in test [5]; above 10000 nM in test [7]. In test [6], the IC50 amounted to 405 nM.
For `COc1cc2ncc(C#N)c(N[C@@H]3C[C@H]3c3ccccc3)c2cc1OCc1ccccc1`, the Ki in test [1] was above 10000 nM; in test [2], 2600 nM; in test [3], 120 nM; in test [4] it was above 10000 nM; in test [5], 330 nM; in test [7], above 10000 nM. In test [6], this compound came in with an IC50 of 1610 nM.
In the case of `COc1ccc2ncc(C#N)c(N[C@@H]3C[C@H]3c3ccccc3)c2c1`, the Ki in test [1] is above 10000 nM; in test [2] it was above 10000 nM; in test [3] it was 360 nM; in test [4], above 10000 nM; in test [5], 210 nM; in test [7], above 10000 nM. This compound had an IC50 in test [6] of 8270 nM.
Take `N#Cc1cnc2cc(-c3ccc(CN4CCOCC4)cc3)ccc2c1N[C@@H]1C[C@H]1c1ccccc1`: the Ki came out at 170 nM in test [2], 80 nM in test [3], 920 nM in test [4] and 140 nM in test [5]. This compound also gave an IC50 in test [6] of 234 nM.
On to `COc1cc2ncc(C#N)c(N[C@@H]3C[C@H]3c3ccccc3)c2cc1OCCCc1cccnc1`, for which the Ki is 1800 nM in test [1]; 650 nM in test [2]; 68 nM in test [3]; 1710 nM in test [4]; above 10000 nM in test [5]; above 10000 nM in test [7]. The same compound returned an IC50 in test [6] of 68 nM.
As for `COc1cc2c(N[C@@H]3C[C@H]3c3ccccc3)c(C#N)cnc2cc1OCCCN1CCN(C)CC1`, the Ki in test [1] turned out to be 44 nM; in test [2], 300 nM; in test [3], 3 nM; in test [4], 110 nM; in test [5], 27 nM; in test [7] it was 41 nM. In test [6], 5.7 nM corresponded to half-maximal inhibition (IC50).
Turning to `COc1cc2ncc(C#N)c(N[C@@H]3C[C@H]3c3cccc(Br)c3)c2cc1OC`, in test [3], the Ki is 52 nM.
Consider `COc1cc2ncc(C#N)c(N[C@@H]3C[C@H]3c3ccc(Cl)cc3)c2cc1OC`, for which the Ki in test [3] is 44 nM.
As for `COc1ccc2c(N[C@@H]3C[C@H]3c3ccccc3)c(C#N)cnc2c1`, the Ki was above 10000 nM in test [1]; above 10000 nM in test [2]; 180 nM in test [3]; above 10000 nM in test [4]; 170 nM in test [5]; above 10000 nM in test [7]. This compound also returned an IC50 in test [6] of 2580 nM.
Regarding `COc1cc2ncc(C#N)c(N[C@@H]3C[C@H]3c3ccccc3F)c2cc1OC`, the Ki in test [3] turned out to be 36 nM.
On to `COc1cc2c(N[C@@H]3C[C@H]3c3ccccc3)c(C#N)cnc2cc1OCCCN1CCOCC1`, for which the Ki is 200 nM in test [1]; 420 nM in test [2]; 350 nM in test [4]; 45 nM in test [5]; above 10000 nM in test [7].
Consider `COc1cc2ncc(C#N)c(N[C@@H]3C[C@H]3c3ccccc3)c2cc1OCCCN1CCOCC1`, for which the Ki in test [1] is 1800 nM; in test [2], 560 nM; in test [3], 52 nM; in test [4], 910 nM; in test [5] it was above 10000 nM; in test [7], above 10000 nM.
For `N#Cc1cnc2ccc(-c3ccc(CN)cc3)cc2c1N[C@@H]1C[C@H]1c1ccccc1`, the Ki in test [1] came to 770 nM; in test [2] it was 1500 nM; in test [3], 40 nM; in test [4] it was 1400 nM; in test [5], 86 nM; in test [7] it was 450 nM. In test [6], this compound gave an IC50 of 2100 nM.
Take `COc1cc2ncc(C#N)c(N[C@@H]3C[C@H]3c3ccc(Oc4ccccc4)cc3)c2cc1OC`: the Ki in test [3] was determined as 80 nM.
For `N#Cc1cnc2ccc(-c3ccc(CN4CCOCC4)cc3)cc2c1N[C@@H]1C[C@H]1c1ccccc1`, the Ki in test [1] is above 10000 nM; in test [2], above 10000 nM; in test [3] it was 400 nM; in test [4] it was above 10000 nM; in test [5], 570 nM; in test [7], above 10000 nM. This compound showed an IC50 in test [6] of 2530 nM.
In the case of `N#Cc1cnc2ccc(-c3cccc(CN4CCOCC4)c3)cc2c1N[C@@H]1C[C@H]1c1ccccc1`, the Ki in test [1] was above 10000 nM; in test [2], above 10000 nM; in test [3], 340 nM; in test [4] it was above 10000 nM; in test [5], 280 nM; in test [7], above 10000 nM. The same compound displayed an IC50 in test [6] of 5260 nM.
On to `COc1cc2c(N[C@@H]3C[C@H]3c3ccccc3)c(C#N)cnc2cc1OCCCc1cccnc1`, for which the inhibition constant Ki is 300 nM in test [1]; 99 nM in test [2]; 220 nM in test [3]; 1900 nM in test [4]; 49 nM in test [5]; 140 nM in test [7]. In test [6], this compound showed an IC50 of 173 nM.
As for `COCCOc1cc2ncc(C#N)c(N[C@@H]3C[C@H]3c3ccccc3)c2cc1OC`, the Ki in test [1] stood at 390 nM; in test [2], 140 nM; in test [3], 60 nM; in test [4] it was 2900 nM; in test [5], 110 nM; in test [7], 160 nM. This compound also came in with a half-inhibitory concentration (IC50) in test [6] of 52.8 nM.
Consider `COc1cc2ncc(C#N)c(N[C@@H]3C[C@H]3c3ccccc3)c2cc1OC`, for which the Ki in test [1] was determined as 950 nM; in test [2], 2100 nM; in test [3] it was 24 nM; in test [4] it was 1600 nM; in test [5], 150 nM; in test [7], 250 nM. Moreover, 90 nM corresponded to half-maximal inhibition in test [6] (IC50).
For the compound `COc1cc2c(N[C@@H]3C[C@H]3c3ccccc3)c(C#N)cnc2cc1OC1CCN(C)CC1`, the Ki is above 10000 nM in test [1]; above 10000 nM in test [2]; 360 nM in test [3]; 1500 nM in test [4]; above 10000 nM in test [5]; above 10000 nM in test [7]. This compound had a half-maximal inhibitory concentration (IC50) in test [6] of 360 nM.
Consider `COc1cc2ncc(C#N)c(N[C@@H]3C[C@H]3c3ccc(Br)cc3)c2cc1OC`, for which the Ki in test [3] worked out at 220 nM.
